Target: T1, 26S proteasome (chymotryptic activity, LLVY-AMC; β5 subunit) (Oryctolagus cuniculus, UniProt G1T4Q9)
T1 construct: gene PSMB5; purified 26S proteasomes from rabbit muscle; with other subunits of the 26S proteasome
T1 sequence (G1T4Q9 60-263): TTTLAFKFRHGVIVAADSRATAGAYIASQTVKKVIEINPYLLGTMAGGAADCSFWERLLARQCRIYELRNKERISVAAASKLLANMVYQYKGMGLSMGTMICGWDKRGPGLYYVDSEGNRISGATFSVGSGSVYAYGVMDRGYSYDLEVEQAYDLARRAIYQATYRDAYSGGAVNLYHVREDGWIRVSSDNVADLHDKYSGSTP
Test: Suc-LLVY-AMC fluorogenic hydrolysis by purified 26S proteasome, 30 μM compound
Type: biochemical

Structure (SMILES): Cn1c(=S)c2[nH]c(SCCN3C(=O)c4ccccc4C3=O)nc2n(C)c1=O [NSC99671, 2-[2-[(1,3-dimethyl-2-oxo-6-sulfanylidene-7H-purin-8-yl)sulfanyl]ethyl]isoindole-1,3-dione]
- Suc-LLVY-AMC fluorogenic hydrolysis by purified 26S proteasome, 30 μM compound: NSC99671 displayed a moderate inhibitory effect

— PMC2797363, “Discovery of Novel Proteasome Inhibitors Using a High-Content Cell-Based Screening System” (PLoS ONE, 2009)
